Source: patent US20180273538A1, “PYRROLO[2,3-d]PYRIMIDINE DERIVATIVES, A PROCESS FOR THEIR PREPARATION AND PHARMACEUTICAL COMPOSITIONS CONTAINING THEM” (LES LABORATOIRES SERVIER, priority 2015, published 2018)

target: T1, His-TEV-DYRK1A Kinase domain (aa127-485) (Homo sapiens, UniProt Q13627); assay: Kinase ADP assay (ADP Hunter Plus); format: biochemical
T1 construct: His-TEV-DYRK1A Kinase domain (aa127-485); His (N); TEV cleavage site (N)

Going from Cc1nc(NCc2nccs2)c2c(-c3ccnc(N)c3)c[nH]c2n1 [Example 39, 5-(2-aminopyridin-4-yl)-2-methyl-N-(1,3-thiazol-2-ylmethyl)-7H-pyrrolo[2,3-d]pyrimidin-4-amine] to Cc1nc(NCCc2ccccn2)c2c(-c3ccnc(N)c3)c[nH]c2n1 [Example 124, 5-(2-aminopyridin-4-yl)-2-methyl-N-[2-(pyridin-2-yl)ethyl]-7H-pyrrolo[2,3-d]pyrimidin-4-amine], the IC50 rises from 0.084 µM to 0.296 µM (3.5-fold).

Going from Cc1nc([C@@H]2CCc3ccccc3C2)c2c(-c3ccnc(N)c3)c[nH]c2n1 [Example 190] to Cc1nc(N[C@@H]2CCCc3ccccc32)c2c(-c3ccnc(N)c3)c[nH]c2n1 [Example 91, 5-(2-aminopyridin-4-yl)-2-methyl-N-[(1R)-1,2,3,4-tetrahydronaphthalen-1-yl]-7H-pyrrolo[2,3-d]pyrimidin-4-amine], the IC50 falls from 0.419 µM to 0.038 µM (11-fold). The second is the more potent here.

First: Cc1nc(-c2cccc(OCCN3CCOCC3)c2)c2c(-c3ccnc(N)c3)c[nH]c2n1 [Example 204]
Second: CCOc1ccc(-c2nc(C)nc3[nH]cc(-c4ccnc(N)c4)c23)cc1 [Example 172]
The IC50 of the first is 2.4-fold higher: 0.089 µM for the first, 0.037 µM for the second. The second is the more potent here.

Compared with C#Cc1nc(N2CCc3ccccc3C2)c2c(-c3ccnc(N)n3)c[nH]c2n1 [Example 211, 4-[4-(3,4-dihydroisoquinolin-2(1H)-yl)-2-ethynyl-7H-pyrrolo[2,3-d]pyrimidin-5-yl]pyrimidin-2-amine], Cc1nc(N2CCn3ccnc3C2)c2c(-c3cc(N)nc(N)c3)c[nH]c2n1 [Example 141, 4-[4-(5,6-dihydroimidazo[1,2-a]pyrazin-7(8H)-yl)-2-methyl-7H-pyrrolo[2,3-d]pyrimidin-5-yl]pyridine-2,6-diamine] is 15-fold higher in IC50: 0.027 µM for the first, 0.417 µM for the second.

Compared with Cc1nc(CN2CCCC(F)(F)C2)c2c(-c3ccnc(N)c3)c[nH]c2n1 [Example 177], Cc1nc(NC2CCCCC2)c2c(-c3ccnc(N)c3)c[nH]c2n1 [Example 93, 5-(2-aminopyridin-4-yl)-N-cyclohexyl-2-methyl-7H-pyrrolo[2,3-d]pyrimidin-4-amine] is 3-fold lower in IC50: 0.532 µM for the first, 0.176 µM for the second.

Cc1nc(OCCc2ccccc2)c2c(-c3ccncc3)c[nH]c2n1 [Example 10, 2-methyl-4-(2-phenylethoxy)-5-(pyridin-4-yl)-7H-pyrrolo[2,3-d]pyrimidine] and Cc1nc(OCCc2c[nH]c3ccccc23)c2c(-c3ccncc3)c[nH]c2n1 [Example 9, 4-[2-(1H-indol-3-yl)ethoxy]-2-methyl-5-(pyridin-4-yl)-7H-pyrrolo[2,3-d]pyrimidine] are within 1.5-fold of each other in IC50: 0.085 µM for the first, 0.06 µM for the second.

Compared with Cc1nc(Nc2ccccc2C(F)(F)F)c2c(-c3ccnc(N)c3)c[nH]c2n1 [Example 130, 5-(2-aminopyridin-4-yl)-2-methyl-N-[2-(trifluoromethyl)phenyl]-7H-pyrrolo[2,3-d]pyrimidin-4-amine], Cc1nc(N[C@H](C)c2ccccc2)c2c(-c3ccnc(N)c3)c[nH]c2n1 [Example 68, 5-(2-aminopyridin-4-yl)-2-methyl-N-[(1R)-1-phenylethyl]-7H-pyrrolo[2,3-d]pyrimidin-4-amine] is 4.4-fold lower in IC50: 0.26 µM for the first, 0.059 µM for the second. The second is the more potent here.

Compared with Cc1nc(OCc2cc(-c3ccc(F)cc3)on2)c2c(-c3ccnc(N)c3)c[nH]c2n1 [Example 24, 4-(4-{[5-(4-fluorophenyl)-1,2-oxazal-3-yl]methoxy}-2-methyl-7H-pyrrolo[2,3-d]pyrimidin-5-yl)pyridin-2-amine], COc1cc(F)cc(-c2nc(C)nc3[nH]cc(-c4ccnc(N)c4)c23)c1 [Example 162, 4-[4-(3-fluoro-5-methoxyphenyl)-2-methyl-7H-pyrrolo[2,3-d]pyrimidin-5-yl]pyridin-2-amine] is 4.7-fold lower in IC50: 0.066 µM for the first, 0.014 µM for the second.

First: Nc1cc(-c2c[nH]c3nc(C4CC4)nc(NCc4c(F)cccc4F)c23)ccn1 [Example 147, 5-(2-aminopyridin-4-yl)-2-cyclopropyl-N-(2,6-difluorobenzyl)-7H-pyrrolo[2,3-d]pyrimidin-4-amine]
Second: Cc1nc(OCCC2CC2)c2c(-c3ccncc3)c[nH]c2n1 [Example 8, 4-(2-cyclopropylethoxy)-2-methyl-5-(pyridin-4-yl)-7H-pyrrolo[2,3-d]pyrimidine]
The IC50 of the first is 4.5-fold higher: 0.17 µM for the first, 0.038 µM for the second. The second is the more potent here.
